Experimental data from US9108944B2, “Androgen receptor modulators and uses thereof” (ARAGON PHARMACEUTICALS, INC., priority 2010, dated 2015).

Experiments:
[1] = target: T1, AR-VP16 (Homo sapiens, UniProt P10275); assay: AR-VP16 DNA Binding Assay, agonist mode (HepG2 cells); format: cell-based; conditions: Emax >20x DMSO control = agonist
T1 sequence (P10275 560-920 limits assumed): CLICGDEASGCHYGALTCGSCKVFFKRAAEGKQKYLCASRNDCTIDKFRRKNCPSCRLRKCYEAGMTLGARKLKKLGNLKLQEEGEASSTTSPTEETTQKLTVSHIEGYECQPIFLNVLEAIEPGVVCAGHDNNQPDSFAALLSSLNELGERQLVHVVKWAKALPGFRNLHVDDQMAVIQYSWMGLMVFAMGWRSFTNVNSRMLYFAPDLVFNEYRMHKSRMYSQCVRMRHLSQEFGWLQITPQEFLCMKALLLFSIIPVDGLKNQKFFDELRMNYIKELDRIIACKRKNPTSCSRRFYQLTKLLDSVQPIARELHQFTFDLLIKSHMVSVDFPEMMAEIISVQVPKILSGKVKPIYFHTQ

[2] = target: T1, AR-VP16; assay: AR-VP16 DNA Binding Assay, antagonist mode (HepG2 cells, 0.1 nM R1881); format: cell-based
Summary of the method: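 Transfected HepG2 cells expressing AR-VP16 received serially diluted compound in charcoal-stripped-serum RPMI the day after transfection, with 0.1 nM R1881 (final) added only for antagonist testing. After 48 h, cells were lysed for measurement.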

SMILES	ARVP16 DNA Binding Assay (Agonist mode): Agonist? [1]	IC50 [2] [nM]
N#Cc1ncc(N2C(=O)C3(CCC3)N(c3ccc(OCCc4ccccn4)c(F)c3)C2=S)cc1C(F)(F)F [Compound 130, 5-(5-(3-Fluoro-4-(2-(pyridin-2-yl)ethoxy)phenyl)-8-oxo-6-thioxo-5,7-diazaspiro[3.4]octan-7-yl)-3-(trifluoromethyl)picolinonitrile]	No (Agonist defined as a compound whose Emax in the ARVP16 DNA Binding Assay (Agonist mode) is >20x DMSO control)	< 1000
CN1CCN(CCCNC(=O)c2ccc(N3C(=S)N(c4cnc(C#N)c(C(F)(F)F)c4)C(=O)C34CCC4)cc2F)CC1 [Compound 269, 4-(7-(6-Cyano-5-(trifluoromethyl)pyridin-3-yl)-8-oxo-6-thioxo-5,7-diazaspiro[3.4]octan-5-yl)-2-fluoro-N-(3-(4-methylpiperazin-1-yl)propyl)benzamide]	No (Agonist defined as a compound whose Emax in the ARVP16 DNA Binding Assay (Agonist mode) is >20x DMSO control)	< 1000
Cc1cc(N2C(=O)C3(CCC3)N(c3ccc(OCCc4ccccn4)c(F)c3)C2=S)cnc1C#N [Compound 169, 5-(5-(3-Fluoro-4-(2-(pyridin-2-yl)ethoxy)phenyl)-8-oxo-6-thioxo-5,7-diazaspiro[3.4]octan-7-yl)-3-methylpicolinonitrile]	No (Agonist defined as a compound whose Emax in the ARVP16 DNA Binding Assay (Agonist mode) is >20x DMSO control)	< 1000
Cc1ccncc1-c1ccc(N2C(=S)N(c3cnc(C#N)c(C)c3)C(=O)C23CCC3)cc1 [Compound 97, 3-Methyl-5-(5-(4-(4-methylpyridin-3-yl)phenyl)-8-oxo-6-thioxo-5,7-diazaspiro[3.4]octan-7-yl)picolinonitrile]	Yes (Agonist defined as a compound whose Emax in the ARVP16 DNA Binding Assay (Agonist mode) is >20x DMSO control)	< 1000
Cn1nccc1CCOc1ccc(N2C(=S)N(c3cnc(C#N)c(C(F)(F)F)c3)C(=O)C23CCC3)cc1F [Compound 126, 5-(5-(3-Fluoro-4-(2-(1-methyl-1H-pyrazol-5-yl)ethoxy)phenyl)-8-oxo-6-thioxo-5,7-diazaspiro[3.4]octan-7-yl)-3-(trifluoromethyl)picolinonitrile]	Yes (Agonist defined as a compound whose Emax in the ARVP16 DNA Binding Assay (Agonist mode) is >20x DMSO control)	< 1000
N#Cc1ncc(N2C(=O)C3(CCC3)N(c3ccc(OCCCCOCc4ccccc4)c(F)c3)C2=S)cc1C(F)(F)F [Compound 136, 5-(5-(4-(4-(Benzyloxy)butoxy)-3-fluorophenyl)-8-oxo-6-thioxo-5,7-diazaspiro[3.4]octan-7-yl)-3-(trifluoromethyl)picolinonitrile]	No (Agonist defined as a compound whose Emax in the ARVP16 DNA Binding Assay (Agonist mode) is >20x DMSO control)	< 1000
Cc1cc(N2C(=O)C3(CCC3)N(c3ccc(OCCN4CCN(C)CC4)c(F)c3)C2=S)cnc1C#N [Compound 170, 5-(5-(3-Fluoro-4-(2-(4-methylpiperazin-1-yl)ethoxy)phenyl)-8-oxo-6-thioxo-5,7-diazaspiro[3.4]octan-7-yl)-3-methylpicolinonitrile]	Yes (Agonist defined as a compound whose Emax in the ARVP16 DNA Binding Assay (Agonist mode) is >20x DMSO control)	< 1000
N#Cc1ncc(N2C(=O)C3(CCC3)N(c3ccc4cn[nH]c4c3)C2=S)cc1C(F)(F)F [Compound 88, 5-(5-(1H-Indazol-6-yl)-8-oxo-6-thioxo-5,7-diazaspiro[3.4]octan-7-yl)-3-(trifluoromethyl)picolinonitrile]	No (Agonist defined as a compound whose Emax in the ARVP16 DNA Binding Assay (Agonist mode) is >20x DMSO control)	< 1000
N#Cc1ncc(N2C(=O)C3(CCC3)N(c3ccc(CCCC(=O)Nc4ccccc4)cc3)C2=S)cc1C(F)(F)F [Compound 292, 4-(4-(7-(6-Cyano-5-(trifluoromethyl)pyridin-3-yl)-8-oxo-6-thioxo-5,7-diazaspiro[3.4]octan-5-yl)phenyl)-N-phenylbutanamide]	No (Agonist defined as a compound whose Emax in the ARVP16 DNA Binding Assay (Agonist mode) is >20x DMSO control)	> 1000
N#Cc1ncc(N2C(=O)C3(CCC3)N(c3ccc(C(=O)NCCCN4CCCC4=O)c(F)c3)C2=S)cc1C(F)(F)F [Compound 308, 4-(7-(6-Cyano-5-(trifluoromethyl)pyridin-3-yl)-8-oxo-6-thioxo-5,7-diazaspiro[3.4]octan-5-yl)-2-fluoro-N-(3-(2-oxopyrrolidin-1-yl)propyl)benzamide]	No (Agonist defined as a compound whose Emax in the ARVP16 DNA Binding Assay (Agonist mode) is >20x DMSO control)	< 1000
CC(C)C(=O)N1CCC(Oc2ccc(N3C(=S)N(c4cnc(C#N)c(C(F)(F)F)c4)C(=O)C34CCC4)cc2)CC1 [Compound 213, 5-(5-(4-((1-isobutyrylpiperidin-4-yl)oxy)phenyl)-8-oxo-6-thioxo-5,7-diazaspiro[3.4]octan-7-yl)-3-(trifluoromethyl)picolinonitrile]	Yes (Agonist defined as a compound whose Emax in the ARVP16 DNA Binding Assay (Agonist mode) is >20x DMSO control)	< 1000
N#Cc1ncc(N2C(=O)C3(CCC3)N(c3cccc(Oc4ccccc4)c3)C2=S)cc1C(F)(F)F [Compound 24, 5-(8-Oxo-5-(3-phenoxyphenyl)-6-thioxo-5,7-diazaspiro[3.4]octan-7-yl)-3-(trifluoromethyl)picolinonitrile]	No (Agonist defined as a compound whose Emax in the ARVP16 DNA Binding Assay (Agonist mode) is >20x DMSO control)	> 1000
O=C1N(c2ccc3nnc(C(F)(F)F)n3n2)C(=S)N(c2ccc(O)c(F)c2)C12CCC2 [Compound 117, 5-(3-Fluoro-4-hydroxyphenyl)-6-thioxo-7-(3-(trifluoromethyl)-[1,2,4]triazolo[4,3-b]pyridazin-6-yl)-5,7-diazaspiro[3.4]octan-8-one]	No (Agonist defined as a compound whose Emax in the ARVP16 DNA Binding Assay (Agonist mode) is >20x DMSO control)	> 1000
N#Cc1ncc(N2C(=O)C3(CCC3)N(c3ccc(OCCC4CCOCC4)c(F)c3)C2=S)cc1C(F)(F)F [Compound 180, 5-(5-(3-Fluoro-4-(2-(tetrahydro-2H-pyran-4-yl)ethoxy)phenyl)-8-oxo-6-thioxo-5,7-diazaspiro[3.4]octan-7-yl)-3-(trifluoromethyl)picolinonitrile]	Yes (Agonist defined as a compound whose Emax in the ARVP16 DNA Binding Assay (Agonist mode) is >20x DMSO control)	< 1000
CN1CCC(NC(=O)c2ccc(N3C(=S)N(c4cnc(C#N)c(C(F)(F)F)c4)C(=O)C34CCC4)cc2F)CC1 [Compound 276, 4-(7-(6-Cyano-5-(trifluoromethyl)pyridin-3-yl)-8-oxo-6-thioxo-5,7-diazaspiro[3.4]octan-5-yl)-2-fluoro-N-(1-methylpiperidin-4-yl)benzamide]	No (Agonist defined as a compound whose Emax in the ARVP16 DNA Binding Assay (Agonist mode) is >20x DMSO control)	> 1000
N#Cc1ncc(N2C(=O)C3(CCC3)N(c3ccc(OCCCC[S+]([O-])CCCC(F)(F)C(F)(F)F)c(F)c3)C2=S)cc1C(F)(F)F (stereo not shown) [Compound 152, 5-(5-(3-Fluoro-4-(4-((4,4,5,5,5-pentafluoropentyl)sulfinyl)butoxy)phenyl)-8-oxo-6-thioxo-5,7-diazaspiro[3.4]octan-7-yl)-3-(trifluoromethyl)picolinonitrile]	No (Agonist defined as a compound whose Emax in the ARVP16 DNA Binding Assay (Agonist mode) is >20x DMSO control)	< 1000
Cc1ccc(-c2ccc(N3C(=S)N(c4cnc(C#N)c(C)c4)C(=O)C34CCC4)cc2)o1 [Compound 7, 3-Methyl-5-(5-(4-(5-methylfuran-2-yl)phenyl)-8-oxo-6-thioxo-5,7-diazaspiro[3.4]octan-7-yl)picolinonitrile]	No (Agonist defined as a compound whose Emax in the ARVP16 DNA Binding Assay (Agonist mode) is >20x DMSO control)	< 1000
N#Cc1ncc(N2C(=O)C3(CCC3)N(c3ccccc3F)C2=S)cc1C(F)(F)F [Compound 26, 5-(5-(2-Fluorophenyl)-8-oxo-6-thioxo-5,7-diazaspiro[3.4]octan-7-yl)-3-(trifluoromethyl)picolinonitrile]	Yes (Agonist defined as a compound whose Emax in the ARVP16 DNA Binding Assay (Agonist mode) is >20x DMSO control)	< 1000
CNC(=O)c1ccc(N2C(=S)N(c3cnc(C#N)c(C)c3)C(=O)C23CCC3)cc1C [Compound 106, 4-(7-(6-Cyano-5-methylpyridin-3-yl)-8-oxo-6-thioxo-5,7-diazaspiro[3.4]octan-5-yl)-N,2-dimethylbenzamide]	No (Agonist defined as a compound whose Emax in the ARVP16 DNA Binding Assay (Agonist mode) is >20x DMSO control)	< 1000
N#Cc1ncc(N2C(=O)C3(CCC3)N(c3ccc(C(=O)NCCN4CCOCC4)c(F)c3)C2=S)cc1C(F)(F)F [Compound 242, 4-(7-(6-Cyano-5-(trifluoromethyl)pyridin-3-yl)-8-oxo-6-thioxo-5,7-diazaspiro[3.4]octan-5-yl)-2-fluoro-N-(2-morpholinoethyl)benzamide]	No (Agonist defined as a compound whose Emax in the ARVP16 DNA Binding Assay (Agonist mode) is >20x DMSO control)	< 1000
